Experimental data: the kinase profiling compilation of Christmann-Franck et al. (2016)

Key:
Assay in all cases: radiometric filter-binding kinase assay, Kinase HotSpot
Details in all cases: compound 0.5 µM; ATP 10 µM
[1] = target: ACVR1 (human) (UniProt Q04771)
[2] = target: ROCK2 (human) (UniProt O75116)
[3] = target: FLT3 (human) (UniProt P36888)
[4] = target: AURKA (human) (UniProt O14965)
[5] = target: ULK1 (human) (UniProt O75385)
[6] = target: FGFR2 (human) (UniProt P21802)
[7] = target: MATK (human) (UniProt P42679)
[8] = target: CLK4 (human) (UniProt Q9HAZ1)
[9] = target: DAPK3 (human) (UniProt O43293)
[10] = target: CDK1 CCNB1 (human) (UniProt P06493+P14635)
[11] = target: BLK (human) (UniProt P51451)
[12] = target: BMX (human) (UniProt P51813)
[13] = target: EPHB1 (human) (UniProt P54762)
[14] = target: PLK2 (human) (UniProt Q9NYY3)
[15] = target: CAMK2G (human) (UniProt Q13555)
[16] = target: TEC (human) (UniProt P42680)
[17] = target: EPHA3 (human) (UniProt P29320)
[18] = target: PAK3 (human) (UniProt O75914)
[19] = target: FLT1 (human) (UniProt P17948)
[20] = target: MARK3 (human) (UniProt P27448)
[21] = target: BRSK2 (human) (UniProt Q8IWQ3)
[22] = target: EPHA2 (human) (UniProt P29317)
[23] = target: PRKG2 (human) (UniProt Q13237)
[24] = target: DYRK4 (human) (UniProt Q9NR20)
[25] = target: CHEK2 (human) (UniProt O96017)
[26] = target: MAP2K2 (human) (UniProt P36507)
[27] = target: MERTK (human) (UniProt Q12866)
[28] = target: DAPK2 (human) (UniProt Q9UIK4)
[29] = target: JAK3 JH1 JH2 (human) (UniProt P52333)
[30] = target: ULK2 (human) (UniProt Q8IYT8)
[31] = target: CAMK4 (human) (UniProt Q16566)
[32] = target: GRK5 (human) (UniProt P34947)
[33] = target: MAPK9 (human) (UniProt P45984)
[34] = target: MAP4K5 (human) (UniProt Q9Y4K4)
[35] = target: NTRK2 (human) (UniProt Q16620)
[36] = target: PRKCD (human) (UniProt Q05655)
[37] = target: STK33 (human) (UniProt Q9BYT3)
[38] = target: PAK2 (human) (UniProt Q13177)
[39] = target: LCK (human) (UniProt P06239)
[40] = target: NLK (human) (UniProt Q9UBE8)
[41] = target: DSTYK (human) (UniProt Q6XUX3)
[42] = target: PRKCG (human) (UniProt P05129)

Sequence of PLK2 (human) (Q9NYY3 whole entry, looked up): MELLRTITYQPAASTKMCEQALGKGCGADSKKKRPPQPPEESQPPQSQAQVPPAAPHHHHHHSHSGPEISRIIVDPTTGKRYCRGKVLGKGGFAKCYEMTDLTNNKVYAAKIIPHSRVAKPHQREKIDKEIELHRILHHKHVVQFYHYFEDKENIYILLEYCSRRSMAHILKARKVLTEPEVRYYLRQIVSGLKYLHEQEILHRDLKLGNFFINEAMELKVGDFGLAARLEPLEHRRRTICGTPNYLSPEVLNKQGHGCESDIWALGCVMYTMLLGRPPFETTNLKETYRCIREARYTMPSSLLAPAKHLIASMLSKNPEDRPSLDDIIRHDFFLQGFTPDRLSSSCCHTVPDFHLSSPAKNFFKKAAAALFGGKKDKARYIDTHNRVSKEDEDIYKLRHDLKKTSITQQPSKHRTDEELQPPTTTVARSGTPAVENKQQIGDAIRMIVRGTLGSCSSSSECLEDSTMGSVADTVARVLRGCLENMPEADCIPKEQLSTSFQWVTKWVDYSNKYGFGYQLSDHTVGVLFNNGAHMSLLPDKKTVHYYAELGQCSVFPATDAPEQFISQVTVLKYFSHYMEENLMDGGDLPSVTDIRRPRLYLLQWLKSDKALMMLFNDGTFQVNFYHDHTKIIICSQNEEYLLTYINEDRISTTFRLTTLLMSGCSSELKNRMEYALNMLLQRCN
Sequence of CDK1 CCNB1 (human) (P06493 whole entry, looked up): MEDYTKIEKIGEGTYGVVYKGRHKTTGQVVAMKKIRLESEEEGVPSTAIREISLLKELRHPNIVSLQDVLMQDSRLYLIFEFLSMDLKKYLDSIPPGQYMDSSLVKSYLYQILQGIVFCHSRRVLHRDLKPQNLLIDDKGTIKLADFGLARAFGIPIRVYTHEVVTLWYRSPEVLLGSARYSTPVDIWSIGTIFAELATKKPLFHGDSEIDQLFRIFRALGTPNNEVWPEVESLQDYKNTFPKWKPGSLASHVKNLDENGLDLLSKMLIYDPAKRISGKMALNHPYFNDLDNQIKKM
Sequence of CDK1 CCNB1 (human) (P14635 whole entry, looked up): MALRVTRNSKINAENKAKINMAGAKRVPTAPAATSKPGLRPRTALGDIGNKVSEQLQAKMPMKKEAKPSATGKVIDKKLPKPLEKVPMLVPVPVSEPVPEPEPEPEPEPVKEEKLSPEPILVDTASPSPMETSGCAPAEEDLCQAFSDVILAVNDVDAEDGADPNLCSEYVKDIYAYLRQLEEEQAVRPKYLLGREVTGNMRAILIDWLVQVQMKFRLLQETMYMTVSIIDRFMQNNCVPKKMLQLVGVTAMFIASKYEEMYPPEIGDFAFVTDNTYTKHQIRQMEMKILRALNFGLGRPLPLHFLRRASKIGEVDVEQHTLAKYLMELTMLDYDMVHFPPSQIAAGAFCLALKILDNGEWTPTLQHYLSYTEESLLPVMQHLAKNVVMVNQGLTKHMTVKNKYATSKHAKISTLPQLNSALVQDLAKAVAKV
Sequence of BMX (human) (P51813 whole entry, looked up): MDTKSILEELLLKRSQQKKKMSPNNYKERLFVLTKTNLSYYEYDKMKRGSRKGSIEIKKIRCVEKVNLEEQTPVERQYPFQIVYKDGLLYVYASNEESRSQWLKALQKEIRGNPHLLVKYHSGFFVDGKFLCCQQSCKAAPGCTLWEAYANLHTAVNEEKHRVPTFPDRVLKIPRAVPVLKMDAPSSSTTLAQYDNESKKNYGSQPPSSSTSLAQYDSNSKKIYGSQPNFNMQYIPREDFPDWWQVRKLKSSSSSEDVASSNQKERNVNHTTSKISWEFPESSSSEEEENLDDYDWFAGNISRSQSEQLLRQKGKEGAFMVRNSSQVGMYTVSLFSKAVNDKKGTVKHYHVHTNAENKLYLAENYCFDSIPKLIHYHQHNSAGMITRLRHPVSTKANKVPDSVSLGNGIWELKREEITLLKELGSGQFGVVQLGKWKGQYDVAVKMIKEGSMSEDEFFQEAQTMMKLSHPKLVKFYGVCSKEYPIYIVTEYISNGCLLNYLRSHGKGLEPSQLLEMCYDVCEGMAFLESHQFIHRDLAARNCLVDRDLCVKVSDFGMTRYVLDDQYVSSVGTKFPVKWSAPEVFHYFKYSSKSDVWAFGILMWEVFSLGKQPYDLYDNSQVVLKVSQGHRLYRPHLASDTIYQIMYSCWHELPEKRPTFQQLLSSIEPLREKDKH
Sequence of FLT3 (human) (P36888 whole entry, looked up): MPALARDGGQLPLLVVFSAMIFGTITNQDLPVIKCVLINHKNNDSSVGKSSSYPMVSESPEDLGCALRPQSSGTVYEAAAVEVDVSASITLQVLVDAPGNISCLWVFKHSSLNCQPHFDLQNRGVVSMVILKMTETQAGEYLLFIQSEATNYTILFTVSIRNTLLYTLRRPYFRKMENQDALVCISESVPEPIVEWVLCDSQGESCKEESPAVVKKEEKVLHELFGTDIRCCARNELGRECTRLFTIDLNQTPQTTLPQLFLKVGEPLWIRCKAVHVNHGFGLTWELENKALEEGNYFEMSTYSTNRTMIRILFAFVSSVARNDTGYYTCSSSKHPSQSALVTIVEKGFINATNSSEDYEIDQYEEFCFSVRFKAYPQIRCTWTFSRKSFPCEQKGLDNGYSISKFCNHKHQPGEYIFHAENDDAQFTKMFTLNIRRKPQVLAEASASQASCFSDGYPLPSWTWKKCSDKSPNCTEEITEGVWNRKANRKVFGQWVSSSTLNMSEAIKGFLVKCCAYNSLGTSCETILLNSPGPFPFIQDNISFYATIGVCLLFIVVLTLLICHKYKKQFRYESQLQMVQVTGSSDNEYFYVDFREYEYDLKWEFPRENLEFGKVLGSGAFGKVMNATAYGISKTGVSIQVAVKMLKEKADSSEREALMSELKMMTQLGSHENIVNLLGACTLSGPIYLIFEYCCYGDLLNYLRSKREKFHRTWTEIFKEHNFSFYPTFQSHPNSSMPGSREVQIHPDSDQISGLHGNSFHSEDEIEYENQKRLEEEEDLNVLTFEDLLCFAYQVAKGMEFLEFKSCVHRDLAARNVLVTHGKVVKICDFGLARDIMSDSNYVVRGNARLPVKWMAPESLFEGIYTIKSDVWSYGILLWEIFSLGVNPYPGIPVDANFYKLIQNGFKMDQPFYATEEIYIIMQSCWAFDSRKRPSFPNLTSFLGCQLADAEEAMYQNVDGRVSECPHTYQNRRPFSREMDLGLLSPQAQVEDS
Sequence of PAK2 (human) (Q13177 whole entry, looked up): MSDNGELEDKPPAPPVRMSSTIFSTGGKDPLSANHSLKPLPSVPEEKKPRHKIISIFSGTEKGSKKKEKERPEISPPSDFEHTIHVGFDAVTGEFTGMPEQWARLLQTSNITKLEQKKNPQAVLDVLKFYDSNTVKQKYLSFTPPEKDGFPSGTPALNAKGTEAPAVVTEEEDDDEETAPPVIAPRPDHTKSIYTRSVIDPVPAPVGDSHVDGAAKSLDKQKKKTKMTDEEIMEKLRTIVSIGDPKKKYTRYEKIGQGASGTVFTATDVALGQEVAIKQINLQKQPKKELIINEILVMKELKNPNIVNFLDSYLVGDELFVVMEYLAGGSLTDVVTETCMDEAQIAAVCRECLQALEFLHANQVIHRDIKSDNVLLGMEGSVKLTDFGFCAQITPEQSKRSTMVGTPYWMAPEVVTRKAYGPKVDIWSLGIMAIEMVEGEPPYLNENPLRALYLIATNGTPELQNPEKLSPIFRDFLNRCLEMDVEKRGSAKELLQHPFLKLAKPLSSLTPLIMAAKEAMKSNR
Sequence of CAMK4 (human) (Q16566 whole entry, looked up): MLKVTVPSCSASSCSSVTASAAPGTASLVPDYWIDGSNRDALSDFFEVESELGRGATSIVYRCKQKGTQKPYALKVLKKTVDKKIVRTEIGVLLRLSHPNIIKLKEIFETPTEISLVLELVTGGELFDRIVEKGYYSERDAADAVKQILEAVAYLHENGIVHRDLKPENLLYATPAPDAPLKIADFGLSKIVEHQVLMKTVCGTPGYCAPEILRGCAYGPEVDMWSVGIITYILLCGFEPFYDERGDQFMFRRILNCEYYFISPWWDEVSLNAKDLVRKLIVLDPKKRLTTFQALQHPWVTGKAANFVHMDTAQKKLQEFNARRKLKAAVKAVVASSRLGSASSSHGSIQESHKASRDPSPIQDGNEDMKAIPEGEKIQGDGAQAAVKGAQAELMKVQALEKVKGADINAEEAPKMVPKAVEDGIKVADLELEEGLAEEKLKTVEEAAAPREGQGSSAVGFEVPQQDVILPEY
Sequence of NLK (human) (Q9UBE8 whole entry, looked up): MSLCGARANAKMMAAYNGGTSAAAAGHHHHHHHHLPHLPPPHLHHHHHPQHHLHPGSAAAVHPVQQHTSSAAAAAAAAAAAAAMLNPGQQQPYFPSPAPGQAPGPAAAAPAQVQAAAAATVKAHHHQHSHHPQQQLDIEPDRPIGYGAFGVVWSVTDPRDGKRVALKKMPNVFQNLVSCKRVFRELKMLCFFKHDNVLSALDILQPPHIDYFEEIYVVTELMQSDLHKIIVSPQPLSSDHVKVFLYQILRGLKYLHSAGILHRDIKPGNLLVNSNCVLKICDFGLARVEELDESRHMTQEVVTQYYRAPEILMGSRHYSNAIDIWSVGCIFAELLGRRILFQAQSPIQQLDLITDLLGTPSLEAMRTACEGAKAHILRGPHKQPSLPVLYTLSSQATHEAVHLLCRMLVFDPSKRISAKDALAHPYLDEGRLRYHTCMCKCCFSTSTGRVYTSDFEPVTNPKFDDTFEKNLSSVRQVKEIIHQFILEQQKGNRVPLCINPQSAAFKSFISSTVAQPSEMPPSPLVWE
Sequence of MAP2K2 (human) (P36507 whole entry, looked up): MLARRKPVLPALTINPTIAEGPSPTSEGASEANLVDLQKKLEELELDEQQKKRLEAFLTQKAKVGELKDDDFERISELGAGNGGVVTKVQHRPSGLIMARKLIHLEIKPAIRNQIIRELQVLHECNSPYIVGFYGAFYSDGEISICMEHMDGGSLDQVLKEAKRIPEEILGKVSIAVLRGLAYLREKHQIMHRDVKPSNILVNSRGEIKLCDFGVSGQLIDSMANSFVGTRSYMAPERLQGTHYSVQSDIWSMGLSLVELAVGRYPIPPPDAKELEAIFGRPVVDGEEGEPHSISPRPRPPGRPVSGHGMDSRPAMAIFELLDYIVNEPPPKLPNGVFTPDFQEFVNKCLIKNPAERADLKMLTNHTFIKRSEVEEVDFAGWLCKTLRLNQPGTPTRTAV

Compound: COc1ccc2c(c[n+](C)c3c4cc5c(cc4ccc23)OCO5)c1OC
- residual activity [1]: 93.2%
- residual activity [2]: 92.5%
- residual activity [3]: 76.9%
- residual activity [4]: 107%
- residual activity [5]: 109%
- residual activity [6]: 101%
- residual activity [7]: 89.5%
- residual activity [8]: 89.9%
- residual activity [9]: 102%
- residual activity [10]: 84.4%
- residual activity [11]: 98.7%
- residual activity [12]: 104%
- residual activity [13]: 90.4%
- residual activity [14]: 97.6%
- residual activity [15]: 95.9%
- residual activity [16]: 116%
- residual activity [17]: 94.9%
- residual activity [18]: 96.6%
- residual activity [19]: 88.8%
- residual activity [20]: 98.7%
- residual activity [21]: 97%
- residual activity [22]: 97.4%
- residual activity [23]: 68.7%
- residual activity [24]: 95.1%
- residual activity [25]: 96.5%
- residual activity [26]: 95.6%
- residual activity [27]: 90.8%
- residual activity [28]: 93.9%
- residual activity [29]: 101%
- residual activity [30]: 92%
- residual activity [31]: 99.9%
- residual activity [32]: 110%
- residual activity [33]: 102%
- residual activity [34]: 89.3%
- residual activity [35]: 104%
- residual activity [36]: 96.8%
- residual activity [37]: 102%
- residual activity [38]: 101%
- residual activity [39]: 89%
- residual activity [40]: 102%
- residual activity [41]: 86.4%
- residual activity [42]: 87.2%

Compound: Nc1ccc2ncnc(NCCc3ccc(Oc4ccccc4)cc3)c2c1
- residual activity [1]: 91.8%
- residual activity [2]: 90.7%
- residual activity [3]: 103%
- residual activity [4]: 105%
- residual activity [5]: 105%
- residual activity [6]: 95.5%
- residual activity [7]: 89.6%
- residual activity [8]: 94.6%
- residual activity [9]: 104%
- residual activity [10]: 96.3%
- residual activity [11]: 97.1%
- residual activity [12]: 102%
- residual activity [13]: 97.9%
- residual activity [14]: 102%
- residual activity [15]: 118%
- residual activity [16]: 88.3%
- residual activity [17]: 102%
- residual activity [18]: 102%
- residual activity [19]: 96%
- residual activity [20]: 86.4%
- residual activity [21]: 102%
- residual activity [22]: 103%
- residual activity [23]: 105%
- residual activity [24]: 93.7%
- residual activity [25]: 91.7%
- residual activity [26]: 94.9%
- residual activity [27]: 102%
- residual activity [28]: 80.4%
- residual activity [29]: 96.9%
- residual activity [30]: 103%
- residual activity [31]: 98.9%
- residual activity [32]: 98%
- residual activity [33]: 85%
- residual activity [34]: 94.8%
- residual activity [35]: 104%
- residual activity [36]: 97.6%
- residual activity [37]: 101%
- residual activity [38]: 102%
- residual activity [39]: 98.3%
- residual activity [40]: 104%
- residual activity [41]: 101%
- residual activity [42]: 95.2%
